Data from patent US12465582B2, “(S)-2-amino-6-((3-aminopropyl)amino)hexanoic acid (APL) for use in the treatment of non-alcoholic steatohepatitis (NASH), liver inflammation, hepatocellular ballooning, liver fibrosis and steatosis” (Temple University—Of The Commonwealth System Of Higher …, priority 2020, dated 2025).

Legend:
[1] = test system: C57BL/6J mice fed AMLN diet changed to HFD; test: Liver function serum biomarkers in AMLN diet mouse model of NASH; format: in vivo; conditions: 16 weeks (week 50-66)
Procedure: (§1) C57BL/6 mice were maintained in cages and had free access to standard rodent chow (Cat #5053, obtained from Labdiet, Saint Louis, MO) and water. C57BL/6J mice were fed either CHOW (negative control) or amylin liver NASH (AMLN) diet (58% high fat, 25% carbohydrate, 2% cholesterol) for twenty (20) weeks. Beginning at twenty (20) weeks, animals fed AMLN diet were changed to HFD. At fifty (50) weeks, animals were treated twice daily (b.i.d.) with oral administration (p.o.) of either vehicle (positive control) or APL (treated).

Zucker fa/fa obese rats = test: Glucose tolerance test (GTT) in Zucker rat model of NASH; format: in vivo; conditions: 100 mg/kg APL p.o. b.i.d., 78 days, **p<0.01
From the text: Zucker fa/fa obese rats and Zucker Fa/fa lean rats (7-week old male animals obtained from Charles Rivers Laboratories, Wilmington, MA, USA) were maintained in individual cages (1 rat per cage to encourage sedentary activity) and had free access to standard rodent chow (Cat #5053, obtained from Labdiet, Saint Louis, MO) and water (filtered and packed using a Hydrapak system) for 7 days until the start of the experiment. Zucker fa/fa obese rats were randomly assigned to two groups: 1) vehicle p.o.b.i.d. (oral administration, twice a day) for 78 days (n=7); and 2) 100 milligram per kilogram (mg/kg) body weight APL (p.o.b.i.d.) for 78 days (n=8). Zucker Fa/fa lean rats (n=4) were administered vehicle (p.o.b.i.d.) for 78 days. Phosphate-buffered saline (PBS), which is the solution used to dissolve APL, was used as vehicle solution. APL powder was dissolved under sterile conditions with PBS at a concentration of 100 mg/mL; volumes were adjusted for each animal accordingly to their body weight. […]
At the conclusion of the experimental time period (78 days for rats and 130 days for mice), the animals were subjected to a glucose tolerance test (GTT) as follows. […] Glucose levels were measured at 0, 15, 30, 45, 60, and 120 minutes after glucose administration. Glucose was measured using the AlphaTRAK 2 glucometer from Abbott

[2] = test system: C57BL/6J mice fed high fat/high fructose diet (HFD); test: Glucose tolerance test (GTT) in diet-induced obesity (HFD) mouse model of NASH; format: in vivo; conditions: APL 200 mg/kg/day p.o. in two doses, 130 days
From the text: C57BL/6J mice 5 week old male mice obtained from Jackson Laboratories, Bar Harbor, ME, USA) were maintained in cages (5 mice per cage) and had free access to standard rodent chow (Cat #5053, obtained from Labdiet, Saint Louis, MO) and water (filtered and packed using a Hydrapak system) for 5 days until the start of the experiment. The animals were then randomly assigned to five groups (n=5 for each group) receiving different diets and treatments as shown in Table A for 130 days. Each treatment was administered p.o.b.i.d. The APL dosage administered to each animal was 200 milligrams per kilogram of body weight divided in two dosages per day, via oral gavage and the pioglitazone dosage received each animal was 20 milligrams per kilogram of body weight divided in two dosages per day, via oral gavage. “HFD” is high fat/high fructose diet, which contains 58% fat, 25% carbohydrate and 17% protein. HFD was obtained from Research Diets, Inc. “Chow” refers to standard rodent chow (Cat #5053, obtained from Labdiet, Saint Louis, MO). Animals were fed ad libitum, except during the GTT experiments.
At the conclusion of the experimental time period (78 days for rats and 130 days for mice), the animals were subjected to a glucose tolerance test (GTT) as follows. Animals were fasted for 5 hours, weights, and their tails were clipped to measure fasting blood glucose levels. Immediately after, glucose (2 mg/g body weight) was administered orally. Glucose levels were measured at 0, 15, 30, 45, 60, and 120 minutes after glucose administration. Glucose was measured using the AlphaTRAK 2 glucometer from Abbott

[3] = See WO 2018/049019 and US 2019/0192462; cited from earlier work
[4] = test system: C57BL/6J mice fed AMLN diet changed to HFD; test: NAS and liver fibrosis in AMLN diet mouse model of NASH; format: in vivo; conditions: APL p.o. b.i.d., 16 weeks
Procedure: FIG. 12, comprising FIGS. 12A and 12B, depicts data regarding NAS and fibrosis in an AMLN diet mouse model of NASH. C57BL/6J mice were fed either CHOW or a modified AMLN diet that was changed to HFD after twenty (20) weeks. At seek fifty (50) mice were treated with vehicle or APL (p.o.b.i.d.). The APL dosage 25, 50, or 100 mg/kg, oral administration (p.o.) in two dosages per day (b.i.d.) (total dosage of 50, 100, or 200 mg/kg/day). After sixteen (16) weeks of treatment with vehicle or APL biopsies were collected and stained with hematoxylin & eosin (H&E) and evaluated for steatosis, inflammation, and hepatocyte ballooning. FIG. 12A depicts the reduction in NAS the treated group as compared to the positive control. […] FIG. 12B depicts the reduction in liver fibrosis in the treated group as compared to the positive control.
as §1

[5] = test system: C57BL/6J mice fed high fat/high fructose diet (HFD); test: Hepatic steatosis: liver histology (H&E, BODIPY/DAPI) in HFD mouse NASH model; format: in vivo
From the text: As in Example 1, C57BL/6 mice (same sample of mice as in Example 1) were maintained in cages (5 mice per cage) and had free access to standard rodent chow (Cat #5053, obtained from Labdiet, Saint Louis, MO) and water (filtered and packed using a Hydrapak system) for 5 days. […] The APL dose was 200 milligram per kilogram (mg/kg) per day, administered as two 100 milligram per kilogram (mg/kg) body weight APL (p.o.b.i.d.). Animals were fed ad libitum. The animals were humanely euthanized, and the livers were removed for histological analysis. Liver samples in formalin were allowed to fix for 48 hours, and processed into FFPE blocks after fixations. Slides were stained with hematoxylin and eosin (H&E) and to immunostaining with BODIPY and DAPI to quantitate fat deposition and nuclei number using confocal microscopy. See, e.g., Rico et al, 2007, J Cell Physiol, 211(2):504-12; and Daemen et al, 2016, Mol Metab, 5(3) 153-63. The data are depicted in FIGS. 3, 4, and 5
FIG. 5D is the plot of fat deposition assessed using confocal microscopy. Measurements were made in 20×-magnification fields. More than 21 fields from three different animals from each group were analyzed: Chow-vehicle (#fields=26), HFD-Vehicle (#fields=25) and HFD-APL (#fields=23). Indirect measurement using imageJ (Schneider et al., 2012, Nature Methods 9(7): 671-675) was used to calculate fat deposition. Fat deposition was increased 3-fold in HFD/vehicle-treated mice compared with CHOW control mice and with HFD/APL-treated mice (***p<0.001).

[6] = HFD mice, APL 200 mg/kg/day p.o. b.i.d., 20 weeks

NCCCNCCCC[C@H](N)C(=O)O [APL, (S)-2-amino-6-((3-aminopropyl)amino)hexanoic acid]
serum ALP vs positive control ([1]; APL 50 mg/kg/day p.o. b.i.d.): significant reduction | serum ALT vs positive control ([1]; APL 50 mg/kg/day p.o. b.i.d.): significant reduction | serum AST vs positive control ([1]; APL 50 mg/kg/day p.o. b.i.d.): significant reduction | serum nonesterified fatty acids (NEFA) vs positive control ([1]; APL 50 mg/kg/day p.o. b.i.d.): significant reduction | serum triglycerides vs positive control ([1]; APL 50 mg/kg/day p.o. b.i.d.): significant reduction | serum cholesterol vs positive control ([1]; APL 200 mg/kg/day p.o. b.i.d.): significant reduction | AUC of GTT, obese rats treated with APL vs obese rats treated with vehicle (Zucker fa/fa obese rats): significantly lower | AUC of GTT of HFD/vehicle mice compared to mice fed HFD and treated with APL ([2]; **p<0.01): significantly higher | blood glucose levels in GTT, treated vs negative control (chow vehicle) ([2]; HFD mice, any time point 0-120 min): no significant statistical difference | blood glucose levels in GTT, treated vs positive control (HFD vehicle) ([2]; HFD mice, at 15-min (p<0.0001), 60-min (p<0.05), 120-min (p<0.001)): significant statistical difference | affinity for 4-HNE [3]: high affinity | liver fibrosis vs positive control (FIG. 12B) ([4]; ****p<0.0001): significant reduction | NAS vs positive control (FIG. 12A) ([4]; ***p<0.001): significant reduction | number of nuclei (DAPI) of HFD/vehicle mice compared to mice fed HFD and treated with APL ([5]; APL 200 mg/kg/day p.o. b.i.d., ***p<0.001): statistically significant fewer | fat deposition, increase in HFD/vehicle-treated mice compared with HFD/APL-treated mice ([5]; APL 200 mg/kg/day p.o. b.i.d., confocal microscopy, ImageJ, ***p<0.001): 3 fold | hepatocyte ballooning induced by HFD in H&E liver sections (FIG. 3) ([5]; HFD mice treated with APL for 131 days, 20x magnification): minimal or no ballooning | anatomical structure of the liver, H&E (FIG. 5A) ([5]; HFD mice, APL 200 mg/kg/day p.o. b.i.d.): retained the normal anatomy of the liver | hepatocyte fat accumulation, inflammatory infiltration and hepatocyte ballooning in H&E liver sections ([5]; HFD mice, APL 200 mg/kg/day p.o. b.i.d., 18 weeks, vs HFD vehicle): less severe | fat deposition, treated group vs negative control (chow vehicle) [5, 6]: No significant statistical difference | number of nuclei (hepatocytes), treated group vs negative control (chow vehicle) [5, 6]: no statistical differences
